Key:
[1] = Venditti et al. 2013; Liang et al. 2020; cited from earlier work
[2] = mice; Liang et al. 2020; cited from earlier work
macrophage cell lines = macrophage cell lines and skin; Venditti et al. 2013; Lee et al. 2013; cited from earlier work
[3] = Dihydrokaempferol stability at 70° C. in various solvents; type: physicochemical
Protocol: Table 2, provided below, provides stability data for compositions comprising dihydrokaempferol in various solvents, when stored at 70° C. for up to one (1) month.

[4] = tested on: Tumor Necrosis Factor (TNF); test: Differential gene expression in keratinocytes; type: cell-based; settings: normal human epidermal keratinocytes, 1% DHK
Description: (§1) Log 2fold changes are detailed in FIG. 4. Table 13, provided below, highlights certain examples of differential gene expression in normal human epidermal keratinocytes treated with compositions comprising 1% DHK.

[5] = tested on: C-X-C Motif Chemokine Ligand 1 (CXCL1); test: Differential gene expression in keratinocytes; type: cell-based; settings: normal human epidermal keratinocytes, 1% DHK
Description: as §1

Interleukin 24 (IL24) = test: Differential gene expression in keratinocytes; type: cell-based; settings: normal human epidermal keratinocytes, 1% DHK
Description: as §1

[6] = tested on: Transient Receptor Potential Cation Channel Subfamily (TRPV6); test: Differential gene expression in keratinocytes; type: cell-based; settings: normal human epidermal keratinocytes, 1% DHK
Description: as §1

[7] = tested on: Fibroblast Growth Factor 2 (FGF2); test: Differential gene expression in keratinocytes; type: cell-based; settings: normal human epidermal keratinocytes, 1% DHK
Description: as §1

Thrombospondin 4 (THBS4) = test: Differential gene expression in keratinocytes; type: cell-based; settings: normal human epidermal keratinocytes, 1% DHK
Description: as §1

[8] = tested on: C-X-C Motif Chemokine Ligand 2 (CXCL2); test: Differential gene expression in keratinocytes; type: cell-based; settings: normal human epidermal keratinocytes, 1% DHK
Description: as §1

Interleukin 6 (IL6) = test: Differential gene expression in keratinocytes; type: cell-based; settings: normal human epidermal keratinocytes, 1% DHK
Description: as §1

[9] = tested on: Vascular Endothelial Growth Factor A (VEGFA); test: Differential gene expression in keratinocytes; type: cell-based; settings: normal human epidermal keratinocytes, 1% DHK
Description: as §1

Elastin = test: Anti-aging: elastin ELISA in hDF; type: cell-based, Human
Protocol: Human dermal fibroblasts (hDF) were treated with test article of interest. Elastin was quantified by ELISA.

[10] = biological target: T1, human neutrophil elastase (Homo sapiens, UniProt P08246); test: Elastase enzyme inhibition; type: biochemical
T1 sequence (P08246 30-267): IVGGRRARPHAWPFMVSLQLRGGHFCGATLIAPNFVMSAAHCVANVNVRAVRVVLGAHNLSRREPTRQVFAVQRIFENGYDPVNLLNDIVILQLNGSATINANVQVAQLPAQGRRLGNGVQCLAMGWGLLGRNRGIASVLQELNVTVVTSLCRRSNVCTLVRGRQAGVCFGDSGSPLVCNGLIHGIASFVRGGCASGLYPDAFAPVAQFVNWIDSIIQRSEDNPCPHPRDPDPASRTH
Protocol: The assay was conducted to evaluate the elastase enzyme inhibition activity of compositions comprising dihydrokaempferol.
Neutrophil infiltration and neutrophil elastase are both increased in the skin in response to UV stress. […] Therefore, inhibition of this enzyme, particularly in combination with antioxidant activity, is effective in delaying wrinkle development and aiding in maintaining skin integrity. This assay is measures release of 4-nitroaniline from an Me-Suc-Ala-Ala-Pro-Val-pNA by human neutrophil elastase and can be quantified at 405 nm by comparing to solvent control.

[11] = Solubility of dihydrokaempferol in various solvents; type: physicochemical
Description: Table 1, provided below, provides solubility data for dihydrokaempferol in various solvents.

[12] = Venditti et al. 2013; Liang et al. 2020; cited from earlier work; remark: listed apart in the source
IL-6 = test: Anti-inflammatory activity: IL-6 ELISA in LPS/Poly:IC stressed keratinocytes; type: cell-based, Human; settings: for % Reduction vs Treated / IL-6: stimulated NHEK, 24 hours
Protocol: Normal Human Epidermal Keratinocytes (NHEK) were stressed with a cocktail of lipopolysaccharide (LPS) and Polyinosinic-polycytidylic acid sodium salt (Poly:IC), external aggressors capable of inducing an inflammatory response. Stressed cells were subsequently treated with test articles and incubated for 24 hours. Reduction in inflammatory markers was measured by ELISA and % reduction calculated relative to solvent control.

PPAR-72 = settings: stimulates glucose uptake; Zhang et al. 2011; cited from earlier work
[13] = Isopropyl lauroyl sarcosinate, 1 month
[14] = Isopropyl lauroyl sarcosinate, 1 week

O=C1c2c(O)cc(O)cc2O[C@H](c2ccc(O)cc2)[C@H]1O [dihydrokaempferol]
Function as antioxidant [1]: antioxidant | Treatment of severe acute pancreatitis [2]: treatment for severe acute pancreatitis | Anti-inflammatory activity (macrophage cell lines): anti-inflammatory activity | % remaining ([3]; Dimethyl isosorbide, 1 month): 91% | Concentration (% w/w) 1 month ([3]; Dimethyl isosorbide, 1 month): 6.04 % w/w | % remaining ([3]; Dimethyl isosorbide, 1 week): 95% | Concentration (% w/w) 1 week ([3]; Dimethyl isosorbide, 1 week): 6.33 % w/w | Concentration (% w/w) Initial ([3]; Dimethyl isosorbide): 6.66 % w/w | % remaining ([3]; Ethoxydiglycol, 1 month): 84% | Concentration (% w/w) 1 month ([3]; Ethoxydiglycol, 1 month): 6.54 % w/w | % remaining ([3]; Ethoxydiglycol, 1 week): 94% | Concentration (% w/w) 1 week ([3]; Ethoxydiglycol, 1 week): 7.27 % w/w | Concentration (% w/w) Initial ([3]; Ethoxydiglycol): 7.74 % w/w | % remaining [3, 13]: 92% | Concentration (% w/w) 1 month [3, 13]: 7.71 % w/w | % remaining [3, 14]: 97% | Concentration (% w/w) 1 week [3, 14]: 8.14 % w/w | Concentration (% w/w) Initial ([3]; Isopropyl lauroyl sarcosinate): 8.40 % w/w | Log2 Fold Change [4]: −3.39 | Log2 Fold Change [5]: −1.91 | Log2 Fold Change (Interleukin 24 (IL24)): −2.01 | Log2 Fold Change [6]: 2.19 | Log2 Fold Change [7]: 1.82 | Log2 Fold Change (Thrombospondin 4 (THBS4)): 3.30 | Log2 Fold Change [8]: −4.19 | Log2 Fold Change (Interleukin 6 (IL6)): −5.54 | Log2 Fold Change [9]: 2.32 | Elastin (Elastin; 0.001% DHK): 23.1 ng/mL | Elastin (Elastin; 0.003% DHK): 16.6 ng/mL | Elastin (Elastin; 0.005% DHK): 15.9 ng/mL | Lowest concentration inhibiting elastase enzyme activity [10]: 0.1 % w/w | inhibition at 0.02 % strength ([10]; 0.020 % w/w): 0% | inhibition at 0.1 % strength ([10]; 0.100 % w/w): 29.6% | inhibition at 0.5 % strength ([10]; 0.500 % w/w): 81.5% | IC50 elastase enzyme inhibition ([10]; calculated): 0.13 % w/w | Solubility (% w/w) ([11]; Solvent: 1,2 Propanediol): 0.00 % w/w | Solubility (% w/w) ([11]; Solvent: 1,2 heptanediol): 5.00 % w/w | Solubility (% w/w) ([11]; Solvent: 3-methyl-1,3-butanediol): 0.00 % w/w | Solubility (% w/w) ([11]; Solvent: Butylene glycol): 5.00 % w/w | Solubility (% w/w) ([11]; Solvent: C9-12 Alkane): 0.00 % w/w | Solubility (% w/w) ([11]; Solvent: C15-19 Alkane): 0.00 % w/w | Solubility (% w/w) ([11]; Solvent: Capric/Caprylic Triglyceride): 0.00 % w/w | Solubility (% w/w) ([11]; Solvent: Di(propylene glycol) dibenzoate): 0.00 % w/w | Solubility (% w/w) ([11]; Solvent: Dimethyl Isosoribide): 20.00 % w/w | Solubility (% w/w) ([11]; Solvent: Ethoxydiglycol): 25.00 % w/w | Solubility (% w/w) ([11]; Solvent: Isoamyl Laurate): 0.00 % w/w | Solubility (% w/w) ([11]; Solvent: Isopentyldiol): 5.00 % w/w | Solubility (% w/w) ([11]; Solvent: Isopropyl Lauroyl sarcosinate): 10.00 % w/w | Solubility (% w/w) ([11]; Solvent: Isopropyl Myristate): 0.00 % w/w | Solubility (% w/w) ([11]; Solvent: Jojoba Oil): 0.00 % w/w | Solubility (% w/w) ([11]; Solvent: Neopentyl Glycol Dihexanoate): 0.00 % w/w | Solubility (% w/w) ([11]; Solvent: Oleyl Alcohol): 0.00 % w/w | Solubility (% w/w) ([11]; Solvent: Pentylene glycol): 5.00 % w/w | Solubility (% w/w) ([11]; Solvent: Phenylpropanol): 0.00 % w/w | Solubility (% w/w) ([11]; Solvent: Propanediol): 5.00 % w/w | Solubility (% w/w) ([11]; Solvent: Squalene): 0.00 % w/w | Solubility (% w/w) ([11]; Solvent: Sunflower Oil): 0.00 % w/w | Solubility (% w/w) ([11]; Solvent: Tri C12-13 alkyl citrate): 0.00 % w/w | Solubility (% w/w) ([11]; Solvent: Tributyl citrate): 0.00 % w/w | Solubility (% w/w) ([11]; Solvent: Tributyl-O-acetylcitrate): 0.00 % w/w | Solubility (% w/w) ([11]; Solvent: Triethyl Citrate): 0.00 % w/w | Solubility (% w/w) ([11]; Solvent: Triethyl-O-acetylcitrate): 0.00 % w/w | Solubility (% w/w) ([11]; Solvent: Triisostearin): 0.00 % w/w | Solubility in words ([11]; in Helianthus Annuus (Sunflower) Seed Oil): insoluble | Solubility in words ([11]; in a number of other commonly used solvents): minimally soluble | Solubility in words ([11]; in capric/caprylic triglyceride): minimally soluble | Solubility in words ([11]; in dimethyl isosorbide, ethoxydiglycol, glycol, isopropyl lauroyl sarcosinate, pentylene glycol, 1,2 hexanediol, propanediol, butylene glycol, phenylpropanol, isopentyldiol, 1,2 heptanediol): soluble | Solubility in words ([11]; in isopropyl myristate): minimally soluble | Solubility in words ([11]; in oil): poorly soluble or insoluble | Solubility in words ([11]; in water): poorly soluble or insoluble | Function as anti-diabetic [12]: anti-diabetic | % Reduction vs Treated (IL-6; 0.001% DHK): 31.32% | IL-6 (IL-6; 0.001% DHK): 838.7 pg/mL | % Reduction vs Treated (IL-6; 0.002% DHK): 43.70% | IL-6 (IL-6; 0.002% DHK): 687.5 pg/mL | % Reduction vs Treated (IL-6; 0.003% DHK): 64.79% | IL-6 (IL-6; 0.003% DHK): 430.0 pg/mL | Reduction of inflammatory marker IL-6 (up to) (IL-6; in vitro, summary of Table 9): up to 64.79% | Effect on PPAR-72 expression (PPAR-72): increases
